Measured values as given in ChEMBL document CHEMBL1156646, “Natural products chemistry and taxonomy of the marine cyanobacterium Blennothrix cantharidosmum” (J Nat Prod, 2008).
The source made the active and inactive calls. No cut-off for these calls is given here.

Columns and labels:
[1] = test system: Plasmodium falciparum; assay: Antimalarial activity against Plasmodium falciparum; type: functional, organism-based
[2] = test system: Plasmodium falciparum; assay: Antimalarial activity against Plasmodium falciparum at 10 ug/ml; type: functional, organism-based
[3] = test system: Vibrio harveyi; assay: Inhibition of bioluminescence in wild type Vibrio harveyi BB120 by quorum sensing assay; type: functional, organism-based, Vibrio harveyi ATCC BAA-1116

SMILES	IC50 [1] [µM]	Activity [2]	IC50 [3] [µM]
CCCC[C@H](C)C[C@H](C)C(=O)N1CCC[C@H]1C(=O)O[C@@H](C(=O)O[C@H](C(=O)O)[C@@H](C)CC)[C@@H](C)CC [TUMONOIC ACID I]	2		
CCCCCCCC[C@H](C)C(=O)N1CCC[C@H]1C(=O)O		inactive	
CCCCCCCC[C@H](C)C(=O)N1CCC[C@H]1C(=O)O[C@@H](C(=O)O[C@@H](C)C(=O)O)[C@@H](C)CC		inactive	
CCCCCCCC[C@H](C)C(=O)N1CCC[C@H]1C(=O)O[C@@H](C(=O)O[C@H](C(=O)O)C(C)C)C(C)C		inactive	
CCCCCCC/C=C(\C)[C@@H](O)[C@@H](C)C(=O)N1CCC[C@H]1C(=O)O		inactive	
CCCCC(C)/C=C(\C)[C@H](O)[C@H](C)C(=O)N1CCC[C@H]1C(=O)O (stereo partly drawn)		inactive	
CCCCCCCCC(C)[C@H](OC(C)=O)[C@H](C)C(=O)N1CCC[C@H]1C(=O)O (stereo partly drawn) [TUMONOIC ACID F]		inactive	62
